As usually defined, the pIC50 is −log10 of the IC50, conventionally taken in molar units.

pIC50: −log10 of the molar value.

Data on seven compounds can be found in patent publication US20240317725A1, “LPA1 SMALL MOLECULE ANTAGONIST” (TUOJIE BIOTECH (SHANGHAI) CO., LTD., priority 2021, published 2024).

The target in this assay is T1, human lysophosphatidic acid receptor 1 (LPAR1) (Homo sapiens, UniProt Q92633).
T1 construct: host or cells: CHO-K1 (Chinese hamster ovary K1) cells, CHO-K1/LPA1R, kept under hygromycin B selection
T1 sequence (Q92633 whole entry): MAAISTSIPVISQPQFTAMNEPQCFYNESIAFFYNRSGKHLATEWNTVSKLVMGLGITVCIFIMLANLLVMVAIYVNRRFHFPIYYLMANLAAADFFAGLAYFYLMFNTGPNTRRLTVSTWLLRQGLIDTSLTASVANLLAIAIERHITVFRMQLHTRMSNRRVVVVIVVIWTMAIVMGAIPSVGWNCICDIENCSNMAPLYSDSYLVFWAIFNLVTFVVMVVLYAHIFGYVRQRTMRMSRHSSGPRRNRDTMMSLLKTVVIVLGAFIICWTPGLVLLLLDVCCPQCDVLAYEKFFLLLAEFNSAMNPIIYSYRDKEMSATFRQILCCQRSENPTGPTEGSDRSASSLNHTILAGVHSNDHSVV
Put plainly: FLIPR test of antagonist properties: inhibition of LPA-induced intracellular calcium elevation in CHO-K1 cells expressing hLPAR1. The following applies: FLIPR calcium assay, CHO-K1/LPA1R cells, LPA at EC80. Format: cell-based. As to the method: The antagonist properties of the compounds of the present disclosure were tested using the FLIPR (fluorometric imaging plate reader) method. The compounds are inhibitors of intracellular calcium elevation induced by activation of hLPARI (human lysophosphatidic acid receptor 1) expressed in CHO-K1 cells (Chinese hamster ovary K1 cells, HDB).
2.1. Reaction buffer: HBSS+20 mM HEPES+0.1% fatty acid-free BSA+0.001% F-127
2.2. 50×Red dye: (a red dye for blocking background signals in cells) prepared by: weighing out 4 g of tartrazine and 10.2 g of acid red and dissolving them in 100 mL of H2O.
2.3. Fluo-8 staining mixture: 4 mL of reaction buffer, 32 μL of fluo-8, 320 μL of 50×Red dye, and 40 μL of probenecid.
3.1. LPA: dissolved in DPBS (containing 0.1% fatty acid-free BSA) to prepare a 0.8 μM stock solution, and the solution was aliquoted and stored at −20° C.
3.2. Test compound preparation: The test compounds were dissolved in DMSO to prepare 10 mM stock solutions, and the solutions were stored at −20° C. In the experiment, the compounds were first gradient-diluted with DMSO (initial concentration of 50 μM, 3-fold dilution, 10 points) to prepare 200×compound solutions. The compound solutions were then diluted with reaction buffer to give 5×compound solutions, and the solutions were transferred to a 384-well plate (Cat. No. 6008590) using Bravo.
4.1. CHO-K1/LPA1R cells were cultured in a cell culture medium (F-12+10% FBS+400 μg/mL hygromycin B).
4.2. When the cell confluence reached 80%, the cells were digested with 0.25% pancreatin.
4.3. When the cells became round, the digestion was stopped with the medium F-12 (10% FBS), and the cells were counted. Then the cell culture was diluted with F-12 (10% FBS) to give a cell suspension with a density of 6.7×10^5 cells/mL.
4.4. The cell suspension was added to a 384-well black cell culture plate at 30 µL/well using a Multidrop auto-dispenser, and the plate was incubated in a 37° C., 5% CO2 incubator for 20-24 h. The medium was changed to a serum-free F-12 medium, and the cells were starved for 24 h.
4.5. Dose experiment for testing LPA. Gradient dilutions of 6×LPA solution (initial concentration of 60 μM, 3-fold dilution, 10 points) were prepared with reaction buffer. The medium in the 384-well black cell culture plate was discarded and changed to reaction buffer. 10 μL of 5% DMSO reaction buffer was added, and 10 μL of Fluo-8 staining mixture was then added. The plate was incubated in the dark in a 37° C., 5% CO2 incubator for 0.5 h.
4.6. FLIPR was correspondingly programmed, the 6×LPA gradient solutions were added, and readings were taken. Two-minute data were collected.
4.7. A reaction curve was obtained from the numerical values of LPA, and the concentration of LPA at EC80 was calculated. A 6×LPA solution was prepared in a 384-well plate (Cat. No. 6008590), and HPE and ZPE were added to corresponding wells. HPE (one hundred per cent effect) was 60 μM LPA, and ZPE (zero per cent effect) was reaction buffer.
4.8. Testing of compounds. The medium in the 384-well black cell culture plate was discarded and changed to reaction buffer. 10 μL of 5×compound solution was transferred using Bravo, and then 10 μL of Fluo-8 staining mixture was added immediately. The plate was incubated in the dark in a 37° C., 5% CO2 incubator for 0.5 h.
4.9. FLIPR was correspondingly programmed, the 6×LPA solution was added, and readings were taken. Two-minute data were collected.
4.10. Finally, the output fluorescence counts were analyzed, and IC50 was calculated for the compounds.

For `COCc1ccnc(OCc2c(-c3ccc(OC4CC5CCC(C)(C(=O)O)C5C4)c(C)n3)nnn2C)n1` (single isomer, unassigned) [Compound 14-P1, 5-((6-(5-(((4-(Methoxymethyl)pyrimidin-2-yl)oxy)methyl)-1-methyl-1H-1,2,3-triazol-4-yl)-2-methylpyridin-3-yl)oxy)-1-methyloctahydropentalene-1-carboxylic acid], the pIC50 was 7.38.

Turning to `COCc1ccnc(OCc2c(-c3ccc(OC4CC5CCC(C)(C(=O)O)C5C4)c(C)n3)nnn2C)n1` (single isomer, unassigned) [Compound 14-P2, 5-((6-(5-(((4-(Methoxymethyl)pyrimidin-2-yl)oxy)methyl)-1-methyl-1H-1,2,3-triazol-4-yl)-2-methylpyridin-3-yl)oxy)-1-methyloctahydropentalene-1-carboxylic acid], the pIC50 was below 5.00.

Regarding `CCCN(C)C(=O)OCc1c(-c2ccc(O[C@H]3CCC[C@H](C(=O)O)C3)c(C)n2)nnn1C` [BMS986278, reference compound], the pIC50 is 7.22.

`Cc1nc(-c2nnn(C)c2COc2nccc(C(F)(F)F)n2)ccc1OC1CC2CCC(C(=O)O)C2C1` (stereo not shown) [Compound 1, 5-((2-Methyl-6-(1-methyl-5-(((4-(trifluoromethyl)pyrimidin-2-yl)oxy)methyl)-1H-1,2,3-triazol-4-yl)pyridin-3-yl)oxy)octahydropentalene-1-carboxylic acid]: the pIC50 was 7.78.

In the case of `Cc1nc(-c2nnn(C)c2COc2nccc(C(F)F)n2)ccc1OC1CC2CCC(F)(C(=O)O)C2C1` (stereo not shown) [Compound 6, 5-((6-(5-(((4-(Difluoromethyl)pyrimidin-2-yl)oxy)methyl)-1-methyl-1H-1,2,3-triazol-4-yl)-2-methylpyridin-3-yl)oxy)-1-fluorooctahydropentalene-1-carboxylic acid], the pIC50 is 7.40.

As to `Cc1nc(-c2nnn(C)c2COc2nccc(C(F)F)n2)ccc1OC1CC2CCC(C(=O)O)C2C1` (stereo not shown) [Compound 7, 5-((6-(5-(((4-(Difluoromethyl)pyrimidin-2-yl)oxy)methyl)-1-methyl-1H-1,2,3-triazol-4-yl)-2-methylpyridin-3-yl)oxy)octahydropentalene-1-carboxylic acid], the negative-log IC50 (pIC50) was 7.03.

In the case of `Cc1nc(-c2nnn(C)c2COc2nccc(C(F)(F)F)n2)ccc1O[C@H]1CCC[C@H](C(=O)O)C1` [Compound 12, (1S,3S)-3-((2-Methyl-6-(1-methyl-5-(((4-(trifluoromethyl)pyrimidin-2-vl)oxy)methyl)-1H-1,2,3-triazol-4-yl)pyridin-3-yl)oxy)cyclohexane-1-carboxylic acid], the pIC50 is 7.12.
